Reference: PubChem BioAssay AID256 (DTP/NCI, 2004)
Toxic doses and inconclusive results are not listed. Rule for the calls: active = survival T/C of 150% or more; inactive = T/C below 125% in these data.

Tested on: CD2F1 mice, L1210 leukemia ip, survival T/C
Test: NCI In Vivo Anticancer Drug Screen. Data for tumor model L1210 Leukemia (intraperitoneal) in CD2F1 (CDF1) mice
Conditions: endpoint: mean survival time, higher = longer survival
Outline: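 Mice carrying a transplanted tumor received test compound or vehicle alone. The value is the measurement in the treated group divided by that in the vehicle-treated control group.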

[1] = dose: 100.0 mg/kg/injection, schedule: Q04DX003 (ip), vehicle: saline
[2] = dose: 200.0 mg/kg/injection, schedule: Q04DX003 (ip), vehicle: saline
[3] = dose: 400.0 mg/kg/injection, schedule: Q04DX003 (ip), vehicle: saline
[4] = dose: 12.5 mg/kg/injection, schedule: Q01DX009 (ip), vehicle: other
[5] = dose: 25.0 mg/kg/injection, schedule: Q01DX009 (ip), vehicle: other
[6] = dose: 50.0 mg/kg/injection, schedule: Q01DX009 (ip), vehicle: other
[7] = dose: 100.0 mg/kg/injection, schedule: Q01DX009 (ip), vehicle: other
[8] = dose: 12.5 mg/kg/injection, schedule: Q04DX002 (ip), vehicle: saline with Tween-80
[9] = dose: 25.0 mg/kg/injection, schedule: Q04DX002 (ip), vehicle: saline with Tween-80
[10] = dose: 50.0 mg/kg/injection, schedule: Q01DX009 (ip), vehicle: saline with Tween-80
[11] = dose: 100.0 mg/kg/injection, schedule: Q01DX009 (ip), vehicle: saline with Tween-80
[12] = dose: 200.0 mg/kg/injection, schedule: Q01DX009 (ip), vehicle: saline with Tween-80
[13] = dose: 100.0 mg/kg/injection, schedule: Q01DX001 (ip), vehicle: saline
[14] = dose: 200.0 mg/kg/injection, schedule: Q01DX001 (ip), vehicle: saline
[15] = dose: 400.0 mg/kg/injection, schedule: Q01DX001 (ip), vehicle: saline
[16] = dose: 50.0 mg/kg/injection, schedule: Q04DX002 (ip), vehicle: saline with Tween-80
[17] = dose: 100.0 mg/kg/injection, schedule: Q04DX003 (ip), vehicle: saline with Tween-80
[18] = dose: 200.0 mg/kg/injection, schedule: Q04DX003 (ip), vehicle: saline with Tween-80
[19] = dose: 400.0 mg/kg/injection, schedule: Q04DX003 (ip), vehicle: saline with Tween-80
[20] = dose: 400.0 mg/kg/injection, schedule: Q01DX009 (ip), vehicle: saline with Tween-80

Measured: T/C

CCCCCCCCCCC(N)C(=O)O (stereo not given)
inactive: dose: 100.0 mg/kg/injection, schedule: Q01DX009 (ip), vehicle: saline 95 % of control | [1] 100 % of control | dose: 200.0 mg/kg/injection, schedule: Q01DX009 (ip), vehicle: saline 92 % of control | [2] 97 % of control | dose: 400.0 mg/kg/injection, schedule: Q01DX009 (ip), vehicle: saline 95 % of control | [3] 96 % of control

CSc1nccc2ccccc12
inactive: [4] 106 % of control | [5] 106 % of control | [6] 106 % of control | [7] 106 % of control

CN(C)CCOc1cccc(Br)c1
inactive: dose: 25.0 mg/kg/injection, schedule: Q04DX003 (ip), vehicle: saline 100 % of control | dose: 50.0 mg/kg/injection, schedule: Q04DX003 (ip), vehicle: saline 100 % of control | [1] 100 % of control

Cc1cccc(N2CCN(CCO)CC2)c1
inactive: dose: 12.5 mg/kg/injection, schedule: Q01DX009 (ip), vehicle: saline 109 % of control | dose: 25.0 mg/kg/injection, schedule: Q01DX009 (ip), vehicle: saline 102 % of control | dose: 50.0 mg/kg/injection, schedule: Q01DX009 (ip), vehicle: saline 100 % of control

O=C(O)CCC(C(=O)O)c1ccccc1 (stereo not given)
inactive: dose: 75.0 mg/kg/injection, schedule: Q01DX001 (ip), vehicle: saline 98 % of control | dose: 150.0 mg/kg/injection, schedule: Q01DX001 (ip), vehicle: saline 101 % of control | dose: 300.0 mg/kg/injection, schedule: Q01DX001 (ip), vehicle: saline 104 % of control

C=C(C)C1CCC2(C(=O)OC)CCC3(C)C(CCC4C5(C)CCC(OC6CCCCO6)C(C)(C)C5CCC43C)C12 (stereo not given)
inactive: dose: 6.25 mg/kg/injection, schedule: Q04DX002 (ip), vehicle: saline with Tween-80 103 % of control | [8] 95 % of control | [9] 86 % of control

CC(C)C(=O)C1CCCCC1
inactive: [10] 103 % of control | [11] 95 % of control | [12] 95 % of control

CC1(C)OCC(C(=O)C(OC(=O)c2ccccc2)C2COC(C)(C)O2)O1 (stereo not given)
inactive: dose: 50.0 mg/kg/injection, schedule: Q01DX009 (ip), vehicle: Klucel (hydroxypropylcellulose) (HPC) 94 % of control | dose: 100.0 mg/kg/injection, schedule: Q01DX009 (ip), vehicle: Klucel (hydroxypropylcellulose) (HPC) 88 % of control | dose: 200.0 mg/kg/injection, schedule: Q01DX009 (ip), vehicle: Klucel (hydroxypropylcellulose) (HPC) 98 % of control

O=C1c2ccccc2CC1c1ccccc1 (stereo not given)
inactive: [4] 102 % of control | [5] 102 % of control | [6] 97 % of control | [7] 96 % of control | dose: 200.0 mg/kg/injection, schedule: Q01DX009 (ip), vehicle: other 100 % of control

C=CCC1(C)C(=O)CCC2=C1CCc1c(OC)cccc12 (stereo not given)
inactive: [13] 90 % of control | [14] 90 % of control | [15] 92 % of control

CC[C@](C)(O)C(=O)O[C@H]1C(=O)O[C@@H]2C[C@H]3C(C)=CC(=O)[C@@H](O)[C@]3(C)[C@H]3[C@@]4(O)OC[C@]32[C@@H]1[C@@H](C)[C@H]4O
inactive: dose: 12.5 micrograms/kg/injection, schedule: Q01DX009 (ip), vehicle: saline with Tween-80 101 % of control | dose: 25.0 micrograms/kg/injection, schedule: Q01DX009 (ip), vehicle: saline with Tween-80 100 % of control | dose: 50.0 micrograms/kg/injection, schedule: Q01DX009 (ip), vehicle: saline with Tween-80 105 % of control | dose: 100.0 micrograms/kg/injection, schedule: Q01DX009 (ip), vehicle: saline with Tween-80 112 % of control

CC(C)(C)C(Br)C(=O)O (stereo not given)
inactive: dose: 75.0 mg/kg/injection, schedule: Q01DX001 (ip), vehicle: saline with Tween-80 97 % of control | dose: 150.0 mg/kg/injection, schedule: Q01DX001 (ip), vehicle: saline with Tween-80 97 % of control

O=C(CC(=O)C(F)(F)F)C(F)(F)F.[C-]#[O+].[C-]#[O+].[Mn].c1ccc([PH+](c2ccccc2)c2ccccc2)cc1.c1ccc([PH+](c2ccccc2)c2ccccc2)cc1
inactive: [8] 91 % of control | [9] 91 % of control | [16] 95 % of control

CC(=O)OCC(Br)C(Br)COC(C)=O (stereo not given)
inactive: [17] 100 % of control | [18] 100 % of control | [19] 97 % of control

O=P(O)(O)Cc1ccccc1-c1ccccc1
inactive: [13] 93 % of control | [14] 94 % of control | [15] 100 % of control

CCCNC(=O)OCC#CC#CCOC(=O)NCCC
inactive: dose: 100.0 mg/kg/injection, schedule: Q04DX003 (ip), vehicle: Klucel (hydroxypropylcellulose) (HPC) 94 % of control | dose: 200.0 mg/kg/injection, schedule: Q04DX003 (ip), vehicle: Klucel (hydroxypropylcellulose) (HPC) 98 % of control | dose: 400.0 mg/kg/injection, schedule: Q04DX003 (ip), vehicle: Klucel (hydroxypropylcellulose) (HPC) 96 % of control

c1cnc2c(c1)ccc1ncccc12
inactive: dose: 12.5 mg/kg/injection, schedule: Q01DX009 (ip), vehicle: saline with Tween-80 91 % of control | dose: 25.0 mg/kg/injection, schedule: Q01DX009 (ip), vehicle: saline with Tween-80 109 % of control | [10] 96 % of control

C=C(C)C(=O)OCCN(C)C (tested in a mixture with another compound)
inactive: [11] 97 % of control | [17] 100 % of control | [12] 106 % of control | [18] 122 % of control | [19] 92 % of control

O=[N+]([O-])c1cccc2ccccc12
inactive: [1] 101 % of control | [2] 103 % of control | [3] 86 % of control

CC1(C)/C(=C/c2ccccc2)C(=O)c2ccccc21
inactive: [11] 100 % of control | [17] 102 % of control | [12] 100 % of control | [18] 92 % of control | [20] 94 % of control | [19] 102 % of control

CC(=O)OC1C(N=[N+]=[N-])C(OC(C)=O)C(OC(C)=O)C(OC(C)=O)C1OC(C)=O (stereo not given)
inactive: dose: 100.0 mg/kg/injection, schedule: Q01DX001 (ip), vehicle: Klucel (hydroxypropylcellulose) (HPC) 93 % of control | dose: 200.0 mg/kg/injection, schedule: Q01DX001 (ip), vehicle: Klucel (hydroxypropylcellulose) (HPC) 95 % of control | dose: 400.0 mg/kg/injection, schedule: Q01DX001 (ip), vehicle: Klucel (hydroxypropylcellulose) (HPC) 103 % of control

Cc1cccc(CN=C(N)CCl)n1
inactive: dose: 100.0 mg/kg/injection, schedule: Q04DX002 (ip), vehicle: saline 111 % of control | dose: 200.0 mg/kg/injection, schedule: Q04DX002 (ip), vehicle: saline 116 % of control

CC1(Br)CCOC1=O (stereo not given)
inactive: [16] 98 % of control | dose: 100.0 mg/kg/injection, schedule: Q04DX002 (ip), vehicle: saline with Tween-80 98 % of control | dose: 200.0 mg/kg/injection, schedule: Q04DX002 (ip), vehicle: saline with Tween-80 111 % of control

NS(=O)(=O)c1ccc(N=Cc2ccccc2O)cc1
inactive: [11] 95 % of control | [12] 89 % of control | [20] 86 % of control

CCCCCCCCOc1ccc(/C=N\N=C\c2ccc(OCCCCCCCC)cc2)cc1
inactive: [17] 94 % of control | [18] 94 % of control | [19] 94 % of control
